Columns and labels:
hERG (KCNH2) = hERG (KCNH2) (Homo sapiens, UniProt Q12809); assay: Inhibition of hERG at 5 ug/ml by rubidium efflux assay; format: toxicity
[1] = target: Melanin-concentrating hormone receptor 1 (Homo sapiens, UniProt Q99705); assay: Antagonist activity at MCHR1; format: functional
Mus musculus = assay: Ex vivo receptor occupancy at MCHR1 in mouse at 30 mg/kg, po; format: functional

Sequence of hERG (KCNH2) (Q12809 whole entry): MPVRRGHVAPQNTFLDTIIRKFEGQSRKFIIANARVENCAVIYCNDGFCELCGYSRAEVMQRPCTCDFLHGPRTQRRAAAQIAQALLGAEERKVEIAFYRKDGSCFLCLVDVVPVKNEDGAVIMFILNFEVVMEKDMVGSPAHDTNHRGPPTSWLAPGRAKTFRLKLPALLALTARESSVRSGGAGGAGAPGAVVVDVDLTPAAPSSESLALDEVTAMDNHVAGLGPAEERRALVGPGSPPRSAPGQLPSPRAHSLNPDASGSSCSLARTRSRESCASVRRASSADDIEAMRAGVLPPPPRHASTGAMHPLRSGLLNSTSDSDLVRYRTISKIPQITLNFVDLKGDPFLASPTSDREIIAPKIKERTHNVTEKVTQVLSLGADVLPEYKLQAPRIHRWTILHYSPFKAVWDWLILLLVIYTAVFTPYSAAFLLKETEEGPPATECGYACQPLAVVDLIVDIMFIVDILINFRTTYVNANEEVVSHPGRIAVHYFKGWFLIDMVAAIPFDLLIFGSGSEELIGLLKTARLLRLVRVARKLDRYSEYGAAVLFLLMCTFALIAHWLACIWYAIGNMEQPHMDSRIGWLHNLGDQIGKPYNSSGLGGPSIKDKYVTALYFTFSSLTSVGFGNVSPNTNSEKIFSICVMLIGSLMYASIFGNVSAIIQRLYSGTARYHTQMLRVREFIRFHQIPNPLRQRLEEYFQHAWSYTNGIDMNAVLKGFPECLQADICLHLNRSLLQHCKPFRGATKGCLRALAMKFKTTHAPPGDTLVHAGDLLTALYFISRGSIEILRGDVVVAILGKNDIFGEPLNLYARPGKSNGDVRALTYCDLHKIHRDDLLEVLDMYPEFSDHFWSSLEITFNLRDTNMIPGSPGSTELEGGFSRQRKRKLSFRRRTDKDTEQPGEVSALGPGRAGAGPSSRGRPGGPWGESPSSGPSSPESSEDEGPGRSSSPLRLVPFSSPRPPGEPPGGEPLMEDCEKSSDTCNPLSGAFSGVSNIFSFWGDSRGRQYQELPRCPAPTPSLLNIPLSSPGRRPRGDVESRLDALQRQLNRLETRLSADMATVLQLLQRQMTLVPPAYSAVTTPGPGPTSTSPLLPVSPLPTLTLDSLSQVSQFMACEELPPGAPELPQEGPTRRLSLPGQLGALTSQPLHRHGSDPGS
Sequence of Melanin-concentrating hormone receptor 1 (Q99705 whole entry): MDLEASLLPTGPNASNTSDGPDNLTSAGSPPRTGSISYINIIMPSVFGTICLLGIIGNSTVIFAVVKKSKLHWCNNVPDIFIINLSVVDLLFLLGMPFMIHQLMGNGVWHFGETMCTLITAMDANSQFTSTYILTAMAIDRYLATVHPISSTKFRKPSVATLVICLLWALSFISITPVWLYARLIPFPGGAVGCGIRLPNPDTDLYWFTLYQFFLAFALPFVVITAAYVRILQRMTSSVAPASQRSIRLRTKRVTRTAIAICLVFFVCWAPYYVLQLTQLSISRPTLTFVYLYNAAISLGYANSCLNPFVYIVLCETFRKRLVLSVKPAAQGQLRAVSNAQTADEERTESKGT

Compound | inhibition at 5 ug/ml (hERG (KCNH2)) | Ki [1] | inhibition in vivo at 30 mg/kg (Mus musculus)
N#Cc1cccc([C@]23CC[C@@H](N(CCN4CC[C@@H](O)C4)C(=O)Nc4ccc(F)c(Cl)c4)CC2C3)c1 (some centres not stated) | 80% |  | 
N#Cc1cccc([C@]23CC[C@@H](N(CCCN4CC[C@@H](O)C4)C(=O)Nc4ccc(F)c(Cl)c4)[C@H]2C3)c1 | 86% | 22 nM | 
NCc1ncc([C@]23CC[C@@H](N(CCN4CCCC4)C(=O)Nc4ccc(F)c(C(F)(F)F)c4)C2C3)s1 (some centres not stated) | 16% | 107 nM | 
NCc1ncc([C@]23CC[C@@H](N(CCN4CC[C@H](O)C4)C(=O)Nc4ccc(F)c(C(F)(F)F)c4)C2C3)s1 (some centres not stated) | 8% | 99 nM | 
NCc1ncc([C@]23CC[C@@H](N(CCCN4CC[C@H](O)C4)C(=O)Nc4ccc(F)c(C(F)(F)F)c4)C2C3)s1 (some centres not stated) | -4% | 45 nM | 
NCc1ncc([C@]23CC[C@@H](N(CCCN4CC[C@@H](O)C4)C(=O)Nc4ccc(F)c(C(F)(F)F)c4)C2C3)s1 (some centres not stated) | -4% | 17 nM | 
C[C@@H]1CN(CCCN(C(=O)Nc2cc(Cl)nc(Cl)c2)[C@@H]2CC[C@]3(c4cnc(CN)s4)CC23)[C@@H](C)CN1 (some centres not stated) | 3% | 13.1 nM | 
NCc1ncc([C@]23CC[C@@H](N(CCCN4CC5CC4CN5)C(=O)Nc4ccc(F)c(C(F)(F)F)c4)C2C3)s1 (some centres not stated) | 14% | 73 nM | 
NCc1ncc([C@]23CC[C@H](N(CCCN4CC[C@@H](O)C4)C(=O)Nc4ccc(F)c(C(F)(F)F)c4)[C@H]2C3)s1 | 8% | 6.6 nM | 
C[C@@H]1CN(CCCN(C(=O)Nc2cc(Cl)nc(Cl)c2)[C@H]2CC[C@]3(c4cnc(CN)s4)C[C@H]23)[C@@H](C)CN1 | -12% | 6.1 nM | 16%
NCc1ncc(C2=CCC(N(CCN3CCCC3)C(=O)Nc3ccc(F)c(Cl)c3)CC2)s1 (configuration not stated) | 10% |  | 88%
C[C@@H]1CN(CCCN(C(=O)Nc2cc(Cl)nc(Cl)c2)[C@H]2CC[C@@]3(c4cnc(CN)s4)C[C@@H]23)[C@@H](C)CN1 | -13% | 117 nM | 20%
C[C@@H]1CN[C@@H](C)CN1CCCN(C(=O)Nc1cc(Cl)nc(Cl)c1)[C@H]1CC[C@]2(c3cnc(CN)s3)C[C@H]12 | 22% | 4 nM | 39%
C[C@@H]1CN(CCCN(C(=O)Nc2ccc(F)c(C(F)(F)F)c2)[C@@H]2CC[C@]3(c4cnc(CN)s4)CC23)[C@@H](C)CN1 (some centres not stated) | -8% | 19 nM | 
NCc1cnc([C@]23CC[C@@H](N(CCN4CCCC4)C(=O)Nc4ccc(F)c(C(F)(F)F)c4)CC2C3)s1 (some centres not stated) | 19% | 431 nM | 
NCc1ncc([C@@]23CC[C@H](N(CCCN4CC[C@@H](O)C4)C(=O)Nc4ccc(F)c(C(F)(F)F)c4)[C@@H]2C3)s1 | 6% | 167 nM | 
C[C@@H]1CN[C@@H](C)CN1CCCN(C(=O)Nc1cc(Cl)nc(Cl)c1)[C@H]1CC[C@@]2(c3cnc(CN)s3)C[C@@H]12 | 17% | 171 nM | 26%
